These results are taken from ChEMBL document CHEMBL2074570, “The farnesyl protein transferase inhibitor SCH66336 is a potent inhibitor of MDR1 product P-glycoprotein” (Cancer Res, 2001).

This experiment concerns the target ATP-dependent translocase ABCB1 (Homo sapiens, UniProt P08183). Briefly: TP_TRANSPORTER: inhibition of DNR efflux (DNR: ? uM) in MDR1-expressing NIH3T3 cells. The experiment is classed as functional, cell-based.

Sequence of ATP-dependent translocase ABCB1 (P08183 whole entry): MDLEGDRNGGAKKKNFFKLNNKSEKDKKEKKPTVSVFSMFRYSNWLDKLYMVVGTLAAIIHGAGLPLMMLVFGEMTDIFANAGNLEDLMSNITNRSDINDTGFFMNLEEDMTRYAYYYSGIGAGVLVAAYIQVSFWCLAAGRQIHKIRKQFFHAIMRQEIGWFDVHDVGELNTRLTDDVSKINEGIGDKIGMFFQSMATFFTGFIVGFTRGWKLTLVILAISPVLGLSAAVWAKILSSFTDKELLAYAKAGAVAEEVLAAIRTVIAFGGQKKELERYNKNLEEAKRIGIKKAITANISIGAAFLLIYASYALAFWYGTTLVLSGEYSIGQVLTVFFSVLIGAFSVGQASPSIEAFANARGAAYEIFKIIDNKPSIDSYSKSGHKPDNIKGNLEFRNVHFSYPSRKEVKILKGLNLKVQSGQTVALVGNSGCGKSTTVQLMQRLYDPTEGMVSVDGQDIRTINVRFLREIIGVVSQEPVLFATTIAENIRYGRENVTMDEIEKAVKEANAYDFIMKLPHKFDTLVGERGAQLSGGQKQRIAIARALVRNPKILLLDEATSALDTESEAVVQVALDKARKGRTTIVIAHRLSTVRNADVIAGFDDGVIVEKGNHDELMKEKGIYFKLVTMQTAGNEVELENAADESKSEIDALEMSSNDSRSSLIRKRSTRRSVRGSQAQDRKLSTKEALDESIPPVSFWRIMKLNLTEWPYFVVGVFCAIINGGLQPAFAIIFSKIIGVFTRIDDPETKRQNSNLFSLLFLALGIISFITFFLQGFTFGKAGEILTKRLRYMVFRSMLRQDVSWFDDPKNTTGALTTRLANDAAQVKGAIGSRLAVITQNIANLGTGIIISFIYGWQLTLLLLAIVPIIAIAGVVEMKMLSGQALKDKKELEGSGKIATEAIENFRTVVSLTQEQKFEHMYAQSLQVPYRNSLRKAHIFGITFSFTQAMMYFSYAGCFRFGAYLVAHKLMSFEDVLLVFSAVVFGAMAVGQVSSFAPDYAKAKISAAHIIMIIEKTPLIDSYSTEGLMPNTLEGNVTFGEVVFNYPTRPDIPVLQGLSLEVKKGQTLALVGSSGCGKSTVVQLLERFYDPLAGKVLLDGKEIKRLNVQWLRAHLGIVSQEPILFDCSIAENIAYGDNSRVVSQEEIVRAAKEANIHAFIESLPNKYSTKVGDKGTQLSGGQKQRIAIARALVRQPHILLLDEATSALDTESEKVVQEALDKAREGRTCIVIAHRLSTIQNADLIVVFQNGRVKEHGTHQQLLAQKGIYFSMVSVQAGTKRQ

A word on the IC50: it is the concentration that gives 50% inhibition. Higher therefore signals lower potency. As for `NC(=O)N1CCC(CC(=O)N2CCC([C@H]3c4ncc(Br)cc4CCc4cc(Cl)cc(Br)c43)CC2)CC1` [LONAFARNIB], the IC50 turned out to be 2.7 µM.
